From ChEMBL document CHEMBL1201862, “PubChem BioAssay data set” (2004)
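Method: 48-hour compound exposure of cells in 96-well plates, five concentrations, linear interpolation of endpoints. At the GI50, growth is halved.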 Activity calls are given as the source filed them. Rule as the data show it: active = GI50 up to about 1.1 µM and inactive = higher.

Assays:
Experiment in all cases: DTP human tumour cell line panel, 48 h
[1] = system: 786-0
[2] = system: A498
[3] = system: COLO 205
[4] = system: DU-145
[5] = system: HL-60
[6] = system: HT-29
[7] = system: IGROV-1
[8] = system: K562
[9] = system: LOX IMVI
[10] = system: MCF7
[11] = system: MDA-MB-435
[12] = system: MDA-N
[13] = system: NCI-H460
[14] = system: OVCAR-8
[15] = system: PC-3
[16] = system: SF-268
[17] = system: SF-295
[18] = system: SN12C
[19] = system: UACC-257
[20] = system: UACC-62

Measured: GI50

O=C(O)CCC(=O)c1ccc2sc3ccccc3c2c1
inactive: [1] > 100 µM | [2] 27.9 µM | [3] > 100 µM | [4] > 100 µM | [5] 15.8 µM | [6] > 100 µM | [7] > 100 µM | [8] > 100 µM | [9] > 100 µM | [10] > 100 µM | [11] > 100 µM | [12] > 100 µM | [13] > 100 µM | [14] > 100 µM | [15] > 100 µM | [16] > 100 µM | [17] > 100 µM | [18] > 100 µM | [19] > 100 µM | [20] > 100 µM

O=C1N[C@@H]2c3c(Br)sc(Br)c3C(=O)[C@@H]2N1
inactive: [1] 2.41 µM | [2] 17.3 µM | [3] 3.78 µM | [4] 5.86 µM | [5] 2.14 µM | [6] 2.82 µM | [7] 2.26 µM | [8] 2.1 µM | [9] 1.93 µM | [10] 2.62 µM | [11] 2.1 µM | [12] 2.08 µM | [13] 6.44 µM | [14] 2.9 µM | [15] 3.05 µM | [16] 3.33 µM | [17] 15.5 µM | [18] 4.22 µM | [19] 3.3 µM | [20] 4.73 µM

CC1(C)Oc2ccc(Cl)cc2C12CC2
inactive: [1] 16.7 µM | [2] 15.1 µM | [3] 14 µM | [4] 15.8 µM | [5] 18.5 µM | [6] 17.6 µM | [7] 14.7 µM | [8] 15.5 µM | [9] 16.6 µM | [10] 16.9 µM | [11] 15.5 µM | [12] 17.8 µM | [13] 17.8 µM | [14] 14.7 µM | [15] 13.9 µM | [16] 16.6 µM | [17] 14 µM | [18] 18.8 µM | [19] 15.1 µM | [20] 40.5 µM

O=c1[nH]c2cccc([N+](=O)[O-])c2c(=O)n1-c1ccc(Cl)cc1
inactive: [1] 19.8 µM | [2] 13.9 µM | [3] 4.24 µM | [4] 15.1 µM | [5] 11.7 µM | [6] 7.03 µM | [7] 16.7 µM | [8] 1.48 µM | [9] 16.1 µM | [10] 9.91 µM | [11] 6.64 µM | [12] 11.3 µM | [13] 4.4 µM | [14] 11.8 µM | [15] 16.6 µM | [16] 12.2 µM | [17] 1.89 µM | [18] 14 µM | [19] 11.5 µM | [20] 5.3 µM

COc1cc(/N=N/c2cccc(S(N)(=O)=O)c2)c2ccccc2c1N
inactive: [1] 13.4 µM | [2] 19.7 µM | [3] 13 µM | [4] 1.9 µM | [5] 5.2 µM | [6] 15.2 µM | [7] 10.3 µM | [8] 12.2 µM | [9] 3.4 µM | [10] 6.84 µM | [11] 2 µM | [12] 2.41 µM | [13] 9.98 µM | [14] 16.3 µM | [15] 11.5 µM | [16] 15 µM | [17] 10.5 µM | [18] 8.89 µM | [19] 1.54 µM | [20] 2.07 µM

O=C(C1OC1c1ccc(O)cc1)C12CC3CC(CC(C3)C1)C2 (stereo not given)
inactive: [1] 31.6 µM | [2] > 69.8 µM | [3] 29.5 µM | [4] > 100 µM | [5] 10.9 µM | [6] > 100 µM | [7] > 86.1 µM | [8] 23.7 µM | [9] > 40.2 µM | [10] > 55.3 µM | [11] > 40.7 µM | [12] > 57.1 µM | [13] > 80.9 µM | [14] 50 µM | [15] 85.5 µM | [16] > 87.1 µM | [17] > 88.9 µM | [18] 47.1 µM | [19] 57 µM | [20] 40.1 µM

COC(=O)c1c2c(cc3c1CC1(Cc4ccc(C(C)=O)cc4C1)C3)CCC2 (stereo not given)
inactive: [1] 51.8 µM | [2] 31.2 µM | [3] 31.9 µM | [4] 79.3 µM | [5] 17.1 µM | [6] 19.5 µM | [7] 87.5 µM | [8] 14.9 µM | [9] 21.1 µM | [10] 37.3 µM | [11] 6.92 µM | [12] 7.64 µM | [13] 42.2 µM | [14] 68.9 µM | [15] 19.5 µM | [16] 83.2 µM | [17] 40.5 µM | [18] 19.7 µM | [19] 25.2 µM | [20] 35.7 µM

O=c1[nH]c(=O)n(C2CC(O)C(CS)O2)cc1F (stereo not given)
inactive: [1] 21.7 µM | [2] 26.6 µM | [3] 52.5 µM | [4] 61.2 µM | [5] > 63.8 µM | [6] 66.1 µM | [7] > 100 µM | [8] > 93.3 µM | [9] 61.9 µM | [10] 8.38 µM | [11] > 92.7 µM | [12] 86.9 µM | [13] 6.87 µM | [14] 14.8 µM | [15] 81.3 µM | [16] 20.8 µM | [17] 47 µM | [18] 80.5 µM | [19] > 100 µM | [20] 65.2 µM

CCOC(CN=C=S)OCC
inactive: [1] > 10 µM | [2] > 10 µM | [3] > 10 µM | [4] > 10 µM | [5] 3.83 µM | [6] > 10 µM | [7] > 10 µM | [8] 7.01 µM | [9] > 10 µM | [10] 9.27 µM | [11] > 10 µM | [12] > 10 µM | [13] > 10 µM | [14] > 10 µM | [15] > 10 µM | [16] > 10 µM | [17] > 10 µM | [18] > 10 µM | [19] > 10 µM | [20] > 10 µM

COc1nc2nccnc2c(=O)n1C
inactive: [1] > 10 µM | [2] > 10 µM | [3] > 10 µM | [4] > 10 µM | [5] > 10 µM | [6] > 10 µM | [7] > 10 µM | [8] > 10 µM | [9] > 10 µM | [10] > 10 µM | [11] > 10 µM | [12] > 10 µM | [13] > 10 µM | [14] > 10 µM | [15] > 10 µM | [16] > 10 µM | [17] > 10 µM | [18] > 10 µM | [19] > 10 µM | [20] > 10 µM
